Bounds are passed on as bounds.

In this test the target is T1, human DP2 receptor (Homo sapiens, UniProt Q9Y5Y4).
T1 construct: expressed in transfected cells
T1 sequence (Q9Y5Y4 1-395): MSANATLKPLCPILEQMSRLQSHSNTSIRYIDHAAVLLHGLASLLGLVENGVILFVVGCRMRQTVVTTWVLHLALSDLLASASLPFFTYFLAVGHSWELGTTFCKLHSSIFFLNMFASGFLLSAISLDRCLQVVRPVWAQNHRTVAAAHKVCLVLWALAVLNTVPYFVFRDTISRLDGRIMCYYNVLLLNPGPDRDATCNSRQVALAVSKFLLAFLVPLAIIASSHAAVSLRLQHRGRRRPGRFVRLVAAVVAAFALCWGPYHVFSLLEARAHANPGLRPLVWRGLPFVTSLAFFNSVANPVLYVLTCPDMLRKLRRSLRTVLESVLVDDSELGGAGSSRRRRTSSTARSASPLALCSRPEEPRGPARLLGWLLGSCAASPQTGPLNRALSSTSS
The test can be described thus: DP2/CRTH2 radioligand binding assay ([3H]PGD2). The settings on record: [3H]PGD2 binding, membranes of HEK293 cells expressing human DP2; read-out: hDP2. Here is the method:
The ability of a compound to bind to the human DP2 receptor is assessed via a radioligand binding assay using [^3H]PGD2. HEK293 cells stably expressing recombinant human DP2 are resuspended in 10 mM Hepes, 7.4 containing 1 mM DTT, lysed and centrifuged at 75,000×g to pellet the membranes. The membranes are resuspended in 10 mM Hepes, 7.4 containing 1 mM DTT and 10% glycerol to approximately 5 mg protein/ml. Membranes (2-10 μg protein/well) are incubated in 96-well plates with 1 nM [^3H]PGD2 and test compound in Assay Buffer (50 mM Hepes, 10 mM MnCl2, 1 mM EDTA, plus or minus 0.2% human serum albumin, pH 7.4) for 60 minutes at room temperature. The reactions are terminated by rapid filtration through Whatman GF/C glass fibre filter plates. The filter plates were pre-soaked in 0.33% polyethylenimine for 30 minutes at room temperature then washed in Wash Buffer (50 mM Hepes, 0.5 M NaCl pH 7.4) prior to harvesting. After harvesting, the filter plates are washed 3 times with 1 ml cold Wash Buffer then dried. Scintillant is then added to the plates and the radioactivity retained on the filters is determined on a Packard TopCount (Perkin Elmer). Specific binding is determined as total radioactive binding minus non-specific binding in the presence of 10 μM PGD2. IC50s were determined using GraphPad prism analysis of drug titration curves.
Turning to `CCN(Cc1ccc(OC)cc1-c1cc(Cl)cc(CC(=O)O)c1)C(=O)COc1ccc(Cl)cc1` [Compound 1-221, [5-Chloro-2′-({[2-(4-chloro-phenoxy)-acetyl]-ethyl-amino}-methyl)-5′-methoxy-biphenyl-3-yl]-acetic acid], the IC50 is below 300 nM.

For the molecule `CCOC(=O)Cc1ccc(OC)c(-c2ccc(C(=O)O)cc2CN(CC)C(=O)OCc2ccccc2)c1` [Compound 2-14, 2-[(Benzyloxycarbonyl-ethyl-amino)-methyl]-5′-ethoxycarbonylmethyl-2′-methoxy-biphenyl-4-carboxylic acid], the IC50 fell in the range of 1000 to 30000 nM.

Regarding `CCN(Cc1cc(C(F)(F)F)ccc1-c1cc([C@H](C)C(=O)O)cc(C(F)(F)F)c1)C(=O)C1CC1` [Compound 1-238, (S)-2-{2′-[(Cyclopropanecarbonyl-ethyl-amino)-methyl]-5,4′-bis-trifluoromethyl-biphenyl-3-yl}-propionic acid], the IC50 was below 300 nM.

Regarding `CCN(Cc1cc(C(F)(F)F)ccc1-c1cc(C(C)C(=O)O)ccc1OC)C(=O)C1CC1` (stereo not drawn) [Compound 1-217, 2-{2′-[(Cyclopropanecarbonyl-ethyl-amino)-methyl]-6-methoxy-4′-trifluoromethyl-biphenyl-3-yl}-propionic acid], the IC50 was below 300 nM.

Consider `CCN(Cc1cc(-c2ccc(F)cn2)ccc1-c1cc(CC(=O)O)ccc1OC)C(=O)C1CC1` [Compound 1-249, [2′-[(Cyclopropanecarbonyl-ethyl-amino)-methyl]-4′-(5-fluoro-pyridin-2-yl)-6-methoxy-biphenyl-3-yl]-acetic acid], for which the IC50 was below 300 nM.

Regarding `CCN(Cc1cc(C(F)(F)F)ccc1-c1cc(CC(=O)O)ccc1OC)C(=O)C1(O)CC1` [Compound 1-209, (2′-{[Ethyl-(1-hydroxy-cyclopropanecarbonyl)-amino]-methyl}-6-methoxy-4′-trifluoromethyl-biphenyl-3-yl)-acetic acid], the IC50 is below 300 nM.

As to `CCN(Cc1cc(C(F)(F)F)ccc1-c1cc(C(C)C(=O)O)cc(C(F)(F)F)c1)C(C)=O` (stereo not drawn) [Compound 1-213, 2-{2′-[(Acetyl-ethyl-amino)-methyl]-5,4′-bis-trifluoromethyl-biphenyl-3-yl}-propionic acid], the IC50 is below 300 nM.

In the case of `CCN(Cc1cc(C(F)(F)F)ccc1-c1cc(Cl)cc(CC(=O)O)c1)C(=O)OCc1ccc(Cl)cc1` [Compound 1-188, (5-Chloro-2′-{[(4-chloro-benzyloxycarbonyl)-ethyl-amino]-methyl}-4′-trifluoromethyl-biphenyl-3-yl)-acetic acid], the IC50 is below 300 nM.

On to `CCN(Cc1ccc(OC)cc1-c1cc(Cl)cc(CC(=O)O)c1)C(=O)NCc1ccccc1` [Compound 1-219, [2′-(3-Benzyl-1-ethyl-ureidomethyl)-5-chloro-5′-methoxy-biphenyl-3-yl]-acetic acid], for which the IC50 is below 300 nM.

Consider `CCN(Cc1cc(C(F)(F)F)ccc1-c1cc(Cl)cc(C(C)C(=O)O)c1)C(=O)C1CC1` (stereo not drawn) [Compound 1-212, 2-{5-Chloro-2′-[(cyclopropanecarbonyl-ethyl-amino)-methyl]-4′-trifluoromethyl-biphenyl-3-yl}-propionic acid], for which the IC50 was below 300 nM.

Take `CCN(Cc1cc(C(F)(F)F)ccc1-c1cc(Cl)cc(C(C)C(=O)O)c1)C(=O)NCc1ccccc1` (stereo not drawn) [Compound 1-223, 2-[2′-(3-Benzyl-1-ethyl-ureidomethyl)-5-chloro-4′-trifluoromethyl-biphenyl-3-yl]-propionic acid]: the IC50 is below 300 nM.

As for `CCN(Cc1cc(-c2ccc3ncccc3c2)ccc1-c1cc(CC(=O)O)ccc1OC)C(=O)NCc1ccccc1` [Compound 1-231, [2′-(3-Benzyl-1-ethyl-ureidomethyl)-6-methoxy-4′-quinolin-6-yl-biphenyl-3-yl]-acetic acid], the IC50 was below 300 nM.

As for `CCN(Cc1cc(SC)ccc1-c1cc(Cl)cc(CC(=O)O)c1)C(=O)C1CC1` [Compound 1-242, {5-Chloro-2′-[(cyclopropanecarbonyl-ethyl-amino)-methyl]-4′-methylsulfanyl-biphenyl-3-yl}-acetic acid], the IC50 is below 300 nM.

For `CCN(Cc1cc(C(F)(F)F)ccc1-c1cc(Cl)cc(CC(=O)O)c1)C(=O)OCc1ccc(F)cc1` [Compound 1-190, (5-Chloro-2′-{[ethyl-(4-fluoro-benzyloxycarbonyl)-amino]-methyl}-4′-trifluoromethyl-biphenyl-3-yl)-acetic acid], the IC50 was below 300 nM.

In the case of `CCN(Cc1ccc(OC)cc1-c1cc(CC(=O)O)ccc1OC)C(=O)OCc1ccc(Cl)cc1` [Compound 1-195, (2′-{[(4-Chloro-benzyloxycarbonyl)-ethyl-amino]-methyl}-6,5′-dimethoxy-biphenyl-3-yl)-acetic acid], the IC50 is below 300 nM.

With `CCN(Cc1cc(C(F)(F)F)ccc1-c1cc([C@H](C)C(=O)N[C@H](C)Cc2ccccc2)cc(C(F)(F)F)c1)C(=O)NCc1ccccc1` [Compound 2-11, (S)-2-[2′-(3-Benzyl-1-ethyl-ureidomethyl)-5,4′-bis-trifluoromethyl-biphenyl-3-yl]-N—((R)-1-methyl-2-phenyl-ethyl)-propionamide], the IC50 is below 300 nM.

Turning to `CCN(Cc1cc(C(F)(F)F)ccc1-c1cc(C(C)C(=O)O)cc(C(F)(F)F)c1)C(=O)C1CC1` (stereo not drawn) [Compound 1-214, 2-{2′-[(Cyclopropanecarbonyl-ethyl-amino)-methyl]-5,4′-bis-trifluoromethyl-biphenyl-3-yl}-propionic acid], the IC50 is below 300 nM.

Regarding `CCN(Cc1cc(C(F)(F)F)ccc1-c1cc(CC(=O)O)cc(C(F)(F)F)c1)C(=O)NC` [Compound 1-202, [2′-(1-Ethyl-3-methyl-ureidomethyl)-5,4′-bis-trifluoromethyl-biphenyl-3-yl]-acetic acid], the IC50 is below 300 nM.

`CCN(Cc1cc(C(F)(F)F)ccc1-c1cc(CC(=O)O)cc(C(F)(F)F)c1)C(=O)OCc1ccc(Cl)cc1` [Compound 1-189, (2′-{[(4-Chloro-benzyloxycarbonyl)-ethyl-amino]-methyl}-5,4′-bis-trifluoromethyl-biphenyl-3-yl)-acetic acid]: the IC50 was below 300 nM.

For the molecule `CCN(Cc1cc(C(F)(F)F)ccc1-c1cc(CC(=O)O)ccc1OC)C(=O)c1ccccc1` [Compound 1-80, {2′-[(Benzoyl-ethyl-amino)-methyl]-6-methoxy-4′-trifluoromethyl-biphenyl-3-yl}-acetic acid], the IC50 was below 300 nM.

Take `CCN(Cc1cc(C(F)(F)F)ccc1-c1cc(Cl)cc(CC(=O)O)c1)C(=O)c1ccccc1` [Compound 1-203, {2′-[(Benzoyl-ethyl-amino)-methyl]-5-chloro-4′-trifluoromethyl-biphenyl-3-yl}-acetic acid]: the IC50 was below 300 nM.

For the molecule `CCN(Cc1cc(C(F)(F)F)ccc1-c1cc(CC(=O)O)ccc1OC)C(=O)Cc1ccccc1` [Compound 1-207, {2′-[(Ethyl-phenylacetyl-amino)-methyl]-6-methoxy-4′-trifluoromethyl-biphenyl-3-yl}-acetic acid], the IC50 is below 300 nM.

Regarding `CCN(Cc1cc(C(F)(F)F)ccc1-c1cc([C@H](C)C(=O)O)ccc1OC)C(=O)C1CC1` [Compound 1-225, (S)-2-{2′-[(Cyclopropanecarbonyl-ethyl-amino)-methyl]-6-methoxy-4′-trifluoromethyl-biphenyl-3-yl}-propionic acid], the IC50 is 1000 to 30000 nM.

Regarding `CCN(Cc1cc(C(F)(F)F)ccc1-c1cc(CC(=O)O)ccc1OC)C(=O)NCc1ccncc1` [Compound 1-199, [2′-(1-Ethyl-3-pyridin-4-ylmethyl-ureidomethyl)-6-methoxy-4′-trifluoromethyl-biphenyl-3-yl]-acetic acid], the IC50 was below 300 nM.

Regarding `CCN(Cc1cc(C(F)(F)F)ccc1-c1cc(CC(=O)O)cc(C(F)(F)F)c1)C(=O)OCc1ccc(F)cc1` [Compound 1-191, (2′-{[Ethyl-(4-fluoro-benzyloxycarbonyl)-amino]-methyl}-5,4′-bis-trifluoromethyl-biphenyl-3-yl)-acetic acid], the IC50 is below 300 nM.

For `CCOc1ccc(-c2ccc(-c3cc(CC(=O)O)ccc3OC)c(CN(CC)C(=O)Cc3ccccc3)c2)cn1` [Compound 1-255, {4′-(6-Ethoxy-pyridin-3-yl)-2′-[(ethyl-phenylacetyl-amino)-methyl]-6-methoxy-biphenyl-3-yl}-acetic acid], the IC50 was below 300 nM.

On to `CCN(Cc1cc(C(F)(F)F)ccc1-c1cc([C@@H](C)C(=O)N2C(=O)O[C@@H](c3ccccc3)[C@H]2C)ccc1OC)C(=O)C1CC1` [Compound 2-12, Cyclopropanecarboxylic acid ethyl-{2′-methoxy-5′-[(R)-1-methyl-2-((4R,5S)-4-methyl-2-oxo-5-phenyl-oxazolidin-3-yl)-2-oxo-ethyl]-4-trifluoromethyl-biphenyl-2-ylmethyl}-amide], for which the IC50 was above 30000 nM.

These data come from patent publication US8067445B2, “N,N-disubstituted aminoalkylbiphenyl antagonists of prostaglandin D2 receptors” (Panmira Pharmaceuticals, LLC, priority 2008, dated 2011).
